From patent US20260317319A1, “NOVEL ERGOLINES AND METHODS OF TREATING MOOD DISORDERS” (Gilgamesh Pharma Inc., priority 2023, published 2026)
pEC50: −log10 of the molar value. Read-outs that look alike come from different tables or passages of the source.

What was measured:
5-HT2A receptor [1] = target: T1, 5-HT2A receptor (Homo sapiens, UniProt P28223); assay: cell-based; format: cell-based; set-up: expressed in transfected cells; host or cells: HEK293, stably transfected; details: HEK293, agonist, Ca2+ flux, HEK293, max dose; read-out: 5-HT2A % Act @ Max Dose
Protocol: (§1) Functional Assays at 5-HT2A, 5-HT2B, and 5-HT1A. Agonist activity at 5-HT2A, 5-HT2B, 5HT2C and 5-HT1A receptors was determined using a FLIPR Ca^2+ flux assay at WuXi AppTec (Hong Kong) Limited according to their standard protocols. Briefly, stably transfected cells expressing the receptor of interest and Gα15 in the case of 5-HT1A (HEK293 for 5-HT2A and 5-HT2B; CHO cells for 5-HT1A) were grown and plated in a 384 well plate and incubated at 37° C. and 5% CO2 overnight. A solution of 250 mM probenecid in 1 mL FLIPR assay buffer was prepared fresh. This was combined with a fluorescent dye (Fluo-4 Direct™) to make a final assay concentration of 2.5 mM. […] The fluorescent dye was then added to the assay plate along with assay buffer to a final volume of 40 μL. The cell plate was incubated for 50 min at 37° C. and 5% CO2 and placed into the FLIPR Tetra along with the compound plate. 10 μL of references and compounds were then transferred from the compound plate into the cell plate and the fluorescent signal was read.

5-HT1A receptor = target: T2, 5-HT1A receptor (Homo sapiens, UniProt P08908); assay: cell-based; details: CHO, agonist, Ca2+ flux, CHO cells with Gα15, max dose; read-out: 5-HT1A % Act @ Max Dose
T2 construct: expressed in transfected cells; host or cells: CHO cells, stably transfected
T2 sequence (P08908 1-422): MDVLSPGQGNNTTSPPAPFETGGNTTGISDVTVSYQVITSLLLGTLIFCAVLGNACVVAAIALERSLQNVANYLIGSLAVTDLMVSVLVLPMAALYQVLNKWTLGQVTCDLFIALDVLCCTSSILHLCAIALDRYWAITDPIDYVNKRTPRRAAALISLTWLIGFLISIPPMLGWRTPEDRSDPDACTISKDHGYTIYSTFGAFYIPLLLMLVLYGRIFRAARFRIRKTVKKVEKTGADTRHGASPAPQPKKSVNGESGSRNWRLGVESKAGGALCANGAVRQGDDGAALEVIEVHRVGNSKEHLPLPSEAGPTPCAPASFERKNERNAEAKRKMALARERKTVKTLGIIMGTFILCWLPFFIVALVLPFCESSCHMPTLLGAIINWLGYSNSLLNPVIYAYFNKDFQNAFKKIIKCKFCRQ
Protocol: as §1

5-HT2B receptor = target: T3, 5-HT2B receptor (Homo sapiens, UniProt P41595); assay: cell-based; format: cell-based; details: HEK293, agonist, Ca2+ flux, HEK293, max dose; read-out: 5-HT2B % Act @ Max Dose
T3 construct: expressed in transfected cells; host or cells: HEK293, stably transfected
Protocol: as §1

5-HT2A receptor [2] = target: T1, 5-HT2A receptor; assay: biochemical; format: binding; set-up: expressed in transfected cells; host or cells: HEK293, stably transfected; details: radioligand binding, 5-HT2A
Method in brief: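 Binding affinity comes from a [^3H]ketanserin radioligand assay run under literature-adapted conditions.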

5-HT1B receptor = target: T4, 5-HT1B receptor (Homo sapiens, UniProt P28222); assay: cAMP accumulation functional assay at 5-HT1B; format: cell-based; details: agonist, cAMP accumulation, max dose; read-out: 5-HT1B % Act @ Max Dose
T4 construct: expressed in transfected cells
Protocol: Functional Assay at 5-HT1B. Agonist activity at 5-HT1B was determined using a CAMP accumulation protocol at WuXi AppTec (Hong Kong) Limited according to their standard protocols. Briefly, stably transfected cells were plated in an OptiPlate-384 well plate, incubated at RT for 60 mins, and cAMP standard solution (800 nM, 10 μL) was added to the blank well. Then, 10 μL detection reagent was added to each well, the plate incubated for 60 mins at RT, and the plate read using En Vision.

in vitro [3] = format: in vitro ADME, rat; details: RLM (male Sprague-Dawley) 0.50 mg/mL, NADPH 1 mM, 1 μM compound, pH 7.4, 37° C., 60 min
Excerpt: RLM Stability Pooled RLM from male Sprague-Dawley rats (Xenotech R1000) were used.

5-HT2A receptor [4] = target: T1, 5-HT2A receptor; assay: cell-based; format: cell-based; details: agonist, beta-arrestin recruitment; for pEC50: PathHunter, read-out: 5-HT2A Arrestin EC50; for Emax: max dose, read-out: 5-HT2A Arrestin % Act @ Max Dose
Protocol: Arrestin Functional Assay at 5-HT2A. Recruitment of beta-arrestin was determined using a PathHunter assay at Eurofins DiscoverX (Fremont, CA) according to their standard protocols. PathHunter GPCR beta-arrestin assays take advantage of DiscoverX's proprietary Enzyme Fragment Complementation technology. The GPCR is fused in frame with a small enzyme donor fragment ProLink™ (PK) and co-expressed in cells stably expressing a fusion protein of beta-arrestin and the larger, N-terminal deletion mutant of beta-galactosidase. Activation of the GPCR (5-HT2A receptor in this case) stimulates binding of beta-arrestin to the PK-tagged GPCR and forces complementation of the two enzyme fragments, resulting in the formation of an active beta-galactosidase enzyme. This interaction leads to an increase in enzyme activity that can be measured using chemiluminescent PathHunter Detection Reagents. Briefly, PathHunter cells expressing 5-HT2A receptors were seeded in a volume of 20 μL into 384-well plates and incubated at 37° C. for the appropriate time prior to testing. […] Plates were then imaged on a microplate reader and the agonist activity was calculated using the following formula: % Activity=100%×(mean RLU of test sample-mean RLU of vehicle control)/(mean MAX control ligand-mean RLU of vehicle control), where RLU=relative light units.

in vitro [5] = format: in vitro ADME, mouse; details: MLM (male CD-1) 0.50 mg/mL, NADPH 1 mM, 1 μM compound, pH 7.4, 37° C., 60 min
Excerpt: MLM Stability Pooled MLM from male CD-1 mice (BIOIVT M00501) were used.

in vitro [6] = format: in vitro ADME, human; details: HLM 0.50 mg/mL, NADPH 1 mM, 1 μM compound, pH 7.4, 37° C., 60 min

T4 sequence (P28222 whole entry): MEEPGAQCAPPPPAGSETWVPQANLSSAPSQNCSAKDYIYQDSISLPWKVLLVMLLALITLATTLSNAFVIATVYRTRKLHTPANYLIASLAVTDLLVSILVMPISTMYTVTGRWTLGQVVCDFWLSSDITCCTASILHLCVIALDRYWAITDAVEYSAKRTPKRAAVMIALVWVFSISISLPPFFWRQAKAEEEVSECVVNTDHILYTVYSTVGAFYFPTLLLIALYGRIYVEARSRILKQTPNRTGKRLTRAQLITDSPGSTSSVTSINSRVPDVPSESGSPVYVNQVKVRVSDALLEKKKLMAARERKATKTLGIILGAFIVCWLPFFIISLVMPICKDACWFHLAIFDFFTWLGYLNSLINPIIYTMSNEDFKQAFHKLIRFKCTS
T3 sequence (P41595 whole entry): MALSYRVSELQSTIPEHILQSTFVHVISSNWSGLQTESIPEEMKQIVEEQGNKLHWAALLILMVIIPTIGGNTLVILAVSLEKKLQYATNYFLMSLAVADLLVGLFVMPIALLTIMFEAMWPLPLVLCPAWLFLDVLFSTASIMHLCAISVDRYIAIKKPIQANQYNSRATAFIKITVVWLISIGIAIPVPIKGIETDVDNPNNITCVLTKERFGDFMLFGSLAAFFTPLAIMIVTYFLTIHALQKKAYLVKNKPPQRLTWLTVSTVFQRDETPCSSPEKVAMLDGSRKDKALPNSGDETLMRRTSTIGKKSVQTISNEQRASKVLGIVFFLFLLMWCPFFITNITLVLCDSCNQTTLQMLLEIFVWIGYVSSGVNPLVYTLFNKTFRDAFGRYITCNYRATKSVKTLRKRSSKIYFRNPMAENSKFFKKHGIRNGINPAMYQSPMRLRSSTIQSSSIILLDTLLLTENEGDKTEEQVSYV
T1 sequence (P28223 whole entry): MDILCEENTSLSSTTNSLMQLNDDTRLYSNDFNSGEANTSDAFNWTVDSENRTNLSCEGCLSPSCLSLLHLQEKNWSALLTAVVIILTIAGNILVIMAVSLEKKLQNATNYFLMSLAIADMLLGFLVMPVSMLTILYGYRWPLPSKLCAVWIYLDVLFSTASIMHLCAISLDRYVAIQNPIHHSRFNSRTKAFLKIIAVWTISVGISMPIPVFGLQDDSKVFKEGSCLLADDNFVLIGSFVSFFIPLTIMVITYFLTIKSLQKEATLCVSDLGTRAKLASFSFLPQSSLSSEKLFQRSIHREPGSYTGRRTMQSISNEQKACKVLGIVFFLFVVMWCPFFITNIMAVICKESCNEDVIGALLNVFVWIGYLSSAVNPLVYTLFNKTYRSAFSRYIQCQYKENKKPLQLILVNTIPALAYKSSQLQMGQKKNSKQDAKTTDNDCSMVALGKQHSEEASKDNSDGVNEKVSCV

Work on `CCCN1C[C@H](C(=O)N(CC)CC)C=C2c3cccc4c3C(CN4)C[C@H]21` (mixture of isomers) [Compound 36, (6aR,9R)—N,N-diethyl-7-propyl-4,5,5a,6,6a,7,8,9-octahydroindolo[4,3-fg]quinoline-9-carboxamide] yielded an Emax (5-HT2A receptor [1]) of 77.5%, an Emax (5-HT1A receptor) of 88.7% and an Emax (5-HT2B receptor) of 111%. The “potency in receptor binding” value (5-HT2A receptor [2]) was “reduced in potency compared to their dehydro counterparts” and the Emax (5-HT1B receptor) was 97.5%.
With `CCN(CC)C(=O)[C@@H]1C=C2c3cccc4[nH]cc(c34)C[C@H]2N(Cc2ccccc2O)C1` [Compound 16, (6aR,9R)—N,N-diethyl-7-(2-hydroxybenzyl)-4,6,6a,7,8,9-hexahydroindolo[4,3-fg]quinoline-9-carboxamide] the Emax (5-HT2A receptor [1]) was 62%, the “Intrinsic clearance (Clint)” value (in vitro [3]) was 616.3 µL/min/mg and the “half-life (t1/2)” value (in vitro [3]) was 2.2 min. For the same molecule, the pEC50 (5-HT2A receptor [4]) was 8.40, the Emax (5-HT2A receptor [4]) was 47.6% and the Emax (5-HT1A receptor) was 22.3%. For the same molecule, the Emax (5-HT2B receptor) was 26.5%, the “Intrinsic clearance (Clint)” value (in vitro [5]) was 1053.2 µL/min/mg and the “half-life (t1/2)” value (in vitro [5]) was 1.3 min. The “Intrinsic clearance (Clint)” value (in vitro [6]) was 285.8 µL/min/mg, the “half-life (t1/2)” value (in vitro [6]) was 4.9 min and the Emax (5-HT1B receptor) was 90.1%.
For `CCN(CC)C(=O)[C@@H]1C=C2c3cccc4[nH]cc(c34)C[C@H]2N(CCc2cccc(OC)c2)C1` [Compound 20, (6aR,9R)—N,N-diethyl-7-(3-methoxyphenethyl)-4,6,6a,7,8,9-hexahydroindolo[4,3-fg]quinoline-9-carboxamide], the Emax (5-HT2A receptor [1]) was 77.2%, the “Intrinsic clearance (Clint)” value (in vitro [3]) was 1147.6 µL/min/mg and the “half-life (t1/2)” value (in vitro [3]) was 1.2 min. For the same molecule, the pEC50 (5-HT2A receptor [4]) was 8.75, the Emax (5-HT2A receptor [4]) was 83.5% and the Emax (5-HT1A receptor) was 3.85%. For the same molecule, the Emax (5-HT2B receptor) was 3.6%, the “Intrinsic clearance (Clint)” value (in vitro [5]) was 1548.2 µL/min/mg and the “half-life (t1/2)” value (in vitro [5]) was 0.9 min. The “Intrinsic clearance (Clint)” value (in vitro [6]) was 649.2 µL/min/mg, the “half-life (t1/2)” value (in vitro [6]) was 2.1 min and the Emax (5-HT1B receptor) was 34.6%.
With `CCN(CC)C(=O)[C@@H]1C=C2c3cccc4[nH]cc(c34)C[C@H]2N(CCc2ccc(OC)cc2)C1` [Compound 21, (6aR,9R)—N,N-diethyl-7-(4-methoxyphenethyl)-4,6,6a,7,8,9-hexahydroindolo[4,3-fg]quinoline-9-carboxamide] the Emax (5-HT2A receptor [1]) was 51.2%, the “Intrinsic clearance (Clint)” value (in vitro [3]) was 323.2 µL/min/mg and the “half-life (t1/2)” value (in vitro [3]) was 4.3 min. It also gave a pEC50 (5-HT2A receptor [4]) of 8.23, an Emax (5-HT2A receptor [4]) of 93.7% and an Emax (5-HT1A receptor) of 8.2%. For the same molecule, the Emax (5-HT2B receptor) was 1.73%, the “Intrinsic clearance (Clint)” value (in vitro [5]) was 717.4 µL/min/mg and the “half-life (t1/2)” value (in vitro [5]) was 1.9 min. For the same molecule, the “Intrinsic clearance (Clint)” value (in vitro [6]) was 367.7 µL/min/mg, the “half-life (t1/2)” value (in vitro [6]) was 3.8 min and the Emax (5-HT1B receptor) was 79.1%.
With `CCN(CC)C(=O)[C@@H]1C=C2c3cccc4[nH]cc(c34)C[C@H]2N(Cc2ccccn2)C1` [Compound 22, (6aR,9R)—N,N-diethyl-7-(pyridin-2-ylmethyl)-4,6,6a,7,8,9-hexahydroindolo[4,3-fg]quinoline-9-carboxamide] the Emax (5-HT2A receptor [1]) was 64.5%, the “Intrinsic clearance (Clint)” value (in vitro [3]) was 104.8 µL/min/mg and the “half-life (t1/2)” value (in vitro [3]) was 13.2 min. For the same molecule, the pEC50 (5-HT2A receptor [4]) was 8.20, the Emax (5-HT2A receptor [4]) was 40.6% and the Emax (5-HT1A receptor) was 57.3%. For the same molecule, the Emax (5-HT2B receptor) was 7.74%, the “Intrinsic clearance (Clint)” value (in vitro [5]) was 150.0 µL/min/mg and the “half-life (t1/2)” value (in vitro [5]) was 9.2 min. For the same molecule, the “Intrinsic clearance (Clint)” value (in vitro [6]) was 58.2 µL/min/mg, the “half-life (t1/2)” value (in vitro [6]) was 23.8 min and the Emax (5-HT1B receptor) was 89.2%.
